Columns and labels:
Type in all cases: cell-based
OVCAR-8 = test: NCI DTP in-vitro dose response, Ovarian Cancer
OVCAR-4 = test: NCI DTP in-vitro dose response, Ovarian Cancer
IGROV1 = test: NCI DTP in-vitro dose response, Ovarian Cancer
SK-OV-3 = test: NCI DTP in-vitro dose response, Ovarian Cancer
OVCAR-5 = test: NCI DTP in-vitro dose response, Ovarian Cancer
OVCAR-3 = test: NCI DTP in-vitro dose response, Ovarian Cancer
MDA-MB-231/ATCC = test: NCI DTP in-vitro dose response, Breast Cancer
NCI/ADR-RES = test: NCI DTP in-vitro dose response, Breast Cancer
BT-549 = test: NCI DTP in-vitro dose response, Breast Cancer
MDA-MB-468 = test: NCI DTP in-vitro dose response, Breast Cancer
MCF7 = test: NCI DTP in-vitro dose response, Breast Cancer
MDA-MB-435 = test: NCI DTP in-vitro dose response, Breast Cancer
T-47D = test: NCI DTP in-vitro dose response, Breast Cancer
HS 578T = test: NCI DTP in-vitro dose response, Breast Cancer

For `CCc1nc2ccc3c(c2[nH]1)C(=O)c1ccccc1C3=O` [TABLE 4-6], the CC50 (OVCAR-8) was greater than 100 µM, the TGI (OVCAR-8) was greater than 1.00E−4 and the “Percent Growth” value (OVCAR-8; Log10 Concentration −4.0) was 24%. For the same compound, the “Percent Growth” value (OVCAR-8; Log10 Concentration −5.0) was 58%, the “Percent Growth” value (OVCAR-8; Log10 Concentration −6.0) was 92% and the “Percent Growth” value (OVCAR-8; Log10 Concentration −7.0) was 91%. For the same compound, the “Percent Growth” value (OVCAR-8; Log10 Concentration −8.0) was 96%, the GI50 (OVCAR-8; read-out: GI50) was 17.7 µM and the CC50 (OVCAR-4) was greater than 100 µM. The TGI (OVCAR-4) was greater than 1.00E−4, the “Percent Growth” value (OVCAR-4; Log10 Concentration −4.0) was 15% and the “Percent Growth” value (OVCAR-4; Log10 Concentration −5.0) was 37%. For the same compound, the “Percent Growth” value (OVCAR-4; Log10 Concentration −6.0) was 83%, the “Percent Growth” value (OVCAR-4; Log10 Concentration −7.0) was 96% and the “Percent Growth” value (OVCAR-4; Log10 Concentration −8.0) was 98%. It also gave a GI50 (OVCAR-4; read-out: GI50) of 5.18 µM, a CC50 (IGROV1) greater than 100 µM and a GI50 (IGROV1) of 1.34 µM. For the same compound, the TGI (IGROV1) was 1.69E−5, the “Percent Growth” value (IGROV1; Log10 Concentration −4.0) was −19% and the “Percent Growth” value (IGROV1; Log10 Concentration −5.0) was 6%. For the same compound, the “Percent Growth” value (IGROV1; Log10 Concentration −6.0) was 56%, the “Percent Growth” value (IGROV1; Log10 Concentration −7.0) was 88% and the “Percent Growth” value (IGROV1; Log10 Concentration −8.0) was 89%. The CC50 (SK-OV-3) was greater than 100 µM, the TGI (SK-OV-3) was greater than 1.00E−4 and the “Percent Growth” value (SK-OV-3; Log10 Concentration −4.0) was 14%. The “Percent Growth” value (SK-OV-3; Log10 Concentration −5.0) was 12%, the “Percent Growth” value (SK-OV-3; Log10 Concentration −6.0) was 76% and the “Percent Growth” value (SK-OV-3; Log10 Concentration −7.0) was 92%. For the same compound, the “Percent Growth” value (SK-OV-3; Log10 Concentration −8.0) was 95%, the GI50 (SK-OV-3; read-out: GI50) was 2.55 µM and the CC50 (OVCAR-5) was greater than 100 µM. For the same compound, the TGI (OVCAR-5) was greater than 1.00E−4, the “Percent Growth” value (OVCAR-5; Log10 Concentration −4.0) was 45% and the “Percent Growth” value (OVCAR-5; Log10 Concentration −5.0) was 85%. The “Percent Growth” value (OVCAR-5; Log10 Concentration −6.0) was 94%, the “Percent Growth” value (OVCAR-5; Log10 Concentration −7.0) was 91% and the “Percent Growth” value (OVCAR-5; Log10 Concentration −8.0) was 88%. The GI50 (OVCAR-5; read-out: GI50) was 75.7 µM, the CC50 (OVCAR-3) was greater than 100 µM and the TGI (OVCAR-3) was greater than 1.00E−4. For the same compound, the “Percent Growth” value (OVCAR-3; Log10 Concentration −4.0) was 8%, the “Percent Growth” value (OVCAR-3; Log10 Concentration −5.0) was 57% and the “Percent Growth” value (OVCAR-3; Log10 Concentration −6.0) was 93%. The “Percent Growth” value (OVCAR-3; Log10 Concentration −7.0) was 106%, the “Percent Growth” value (OVCAR-3; Log10 Concentration −8.0) was 100% and the GI50 (OVCAR-3; read-out: GI50) was 14.1 µM.
`CCc1nc2ccc3c(c2[nH]1)C(=O)c1ccccc1C3=O` [TABLE 4-9] was tested, and the CC50 (MDA-MB-231/ATCC) was greater than 100 µM, the TGI (MDA-MB-231/ATCC) was greater than 1.00E−4 and the “Percent Growth” value (MDA-MB-231/ATCC; Log10 Concentration −4.0) was 36%. For the same compound, the “Percent Growth” value (MDA-MB-231/ATCC; Log10 Concentration −5.0) was 54%, the “Percent Growth” value (MDA-MB-231/ATCC; Log10 Concentration −6.0) was 90% and the “Percent Growth” value (MDA-MB-231/ATCC; Log10 Concentration −7.0) was 95%. The “Percent Growth” value (MDA-MB-231/ATCC; Log10 Concentration −8.0) was 98%, the GI50 (MDA-MB-231/ATCC; read-out: GI50) was 16.6 µM and the CC50 (NCI/ADR-RES) was greater than 100 µM. The TGI (NCI/ADR-RES) was greater than 1.00E−4, the “Percent Growth” value (NCI/ADR-RES; Log10 Concentration −4.0) was 6% and the “Percent Growth” value (NCI/ADR-RES; Log10 Concentration −5.0) was 51%. For the same compound, the “Percent Growth” value (NCI/ADR-RES; Log10 Concentration −6.0) was 89%, the “Percent Growth” value (NCI/ADR-RES; Log10 Concentration −7.0) was 99% and the “Percent Growth” value (NCI/ADR-RES; Log10 Concentration −8.0) was 95%. For the same compound, the GI50 (NCI/ADR-RES; read-out: GI50) was 10.5 µM, the CC50 (BT-549) was greater than 100 µM and the TGI (BT-549) was greater than 1.00E−4. The “Percent Growth” value (BT-549; Log10 Concentration −4.0) was 15%, the “Percent Growth” value (BT-549; Log10 Concentration −5.0) was 60% and the “Percent Growth” value (BT-549; Log10 Concentration −6.0) was 95%. For the same compound, the “Percent Growth” value (BT-549; Log10 Concentration −7.0) was 100%, the “Percent Growth” value (BT-549; Log10 Concentration −8.0) was 101% and the GI50 (BT-549; read-out: GI50) was 16.7 µM. For the same compound, the CC50 (MDA-MB-468) was greater than 100 µM, the TGI (MDA-MB-468) was 6.33E−5 and the “Percent Growth” value (MDA-MB-468; Log10 Concentration −4.0) was −7%. For the same compound, the “Percent Growth” value (MDA-MB-468; Log10 Concentration −5.0) was 29%, the “Percent Growth” value (MDA-MB-468; Log10 Concentration −6.0) was 79% and the “Percent Growth” value (MDA-MB-468; Log10 Concentration −7.0) was 89%. For the same compound, the “Percent Growth” value (MDA-MB-468; Log10 Concentration −8.0) was 83%, the GI50 (MDA-MB-468; read-out: GI50) was 3.83 µM and the CC50 (MCF7) was greater than 100 µM. For the same compound, the TGI (MCF7) was 8.14E−5, the “Percent Growth” value (MCF7; Log10 Concentration −4.0) was −4% and the “Percent Growth” value (MCF7; Log10 Concentration −5.0) was 37%. The “Percent Growth” value (MCF7; Log10 Concentration −6.0) was 54%, the “Percent Growth” value (MCF7; Log10 Concentration −7.0) was 76% and the “Percent Growth” value (MCF7; Log10 Concentration −8.0) was 85%. It also gave a GI50 (MCF7; read-out: GI50) of 1.68 µM, a CC50 (MDA-MB-435) greater than 100 µM and a TGI (MDA-MB-435) greater than 1.00E−4. The “Percent Growth” value (MDA-MB-435; Log10 Concentration −4.0) was 37%, the “Percent Growth” value (MDA-MB-435; Log10 Concentration −5.0) was 66% and the “Percent Growth” value (MDA-MB-435; Log10 Concentration −6.0) was 92%. The “Percent Growth” value (MDA-MB-435; Log10 Concentration −7.0) was 91%, the “Percent Growth” value (MDA-MB-435; Log10 Concentration −8.0) was 97% and the GI50 (MDA-MB-435; read-out: GI50) was 36.5 µM. For the same compound, the CC50 (T-47D) was greater than 100 µM, the TGI (T-47D) was greater than 1.00E−4 and the “Percent Growth” value (T-47D; Log10 Concentration −4.0) was 10%. The “Percent Growth” value (T-47D; Log10 Concentration −5.0) was 32%, the “Percent Growth” value (T-47D; Log10 Concentration −6.0) was 78% and the “Percent Growth” value (T-47D; Log10 Concentration −7.0) was 94%. The “Percent Growth” value (T-47D; Log10 Concentration −8.0) was 105%, the GI50 (T-47D; read-out: GI50) was 4 µM and the CC50 (HS 578T) was greater than 100 µM. For the same compound, the TGI (HS 578T) was 2.67E−5, the “Percent Growth” value (HS 578T; Log10 Concentration −4.0) was −32% and the “Percent Growth” value (HS 578T; Log10 Concentration −5.0) was 24%. For the same compound, the “Percent Growth” value (HS 578T; Log10 Concentration −6.0) was 56%, the “Percent Growth” value (HS 578T; Log10 Concentration −7.0) was 108% and the “Percent Growth” value (HS 578T; Log10 Concentration −8.0) was 107%. It also gave a GI50 (HS 578T; read-out: GI50) of 1.56 µM.

Source: US8445492B2, “Method for inhibiting growth of cancer cells and cell telomere and diseases of cell proliferation by using heteroannelated anthraquinone derivative compounds” (National Defense Medical Center, priority 2008, dated 2013)
